Experimental data: patent US6455537B1, “Methods for treating opiate intolerance” (priority 1999, dated 2002)
Entries after “also recorded” stand apart in the source; their conditions may differ.

Key:
[1] = tested on: analgesic effects of morphine; assay: Antagonism of morphine analgesia, tail flick test in rats; conditions: i.v.; lowest dose significantly antagonizing morphine in the tail flick test
[2] = tested on: morphine-induced emesis; assay: Prevention of morphine-induced emesis in dogs; conditions: for Anti-emetic ED84 value: i.v. 5 minutes prior to morphine 0.7 mg/kg i.m., estimated dose that protects 84% of treated dogs
[3] = tested on: Rat; assay: Ataxic gait after antagonist alone, bolus intravenous injection; assay type: in vivo; conditions: i.v.; only the opiate antagonist given
Excerpt: Only the opiate antagonist was given to study the acute side effect liability. Relative to the other compounds tested, higher doses of R N-methylnalorphine were required to produce ataxia as compared with the other compounds, with the exception of R and S N-methylnalorphine. Animals showing ataxic gait walked unsteadily with a widespread placement of the feet in a staggering manner.

[4] = tested on: morphine-induced constipation; assay: Gastrointestinal transit of a charcoal meal in morphine-treated mice; assay type: in vivo; conditions: morphine 3 mg/kg s.c.; charcoal meal by oral gavage; transit 25 minutes after charcoal
Experimental: Animals were give R N-methylnalorphine, then morphine 15 minutes later, followed by charcoal suspended in MC. Transit was measured 25 minutes after charcoal. * p<0.05 compared to morphine-treatment.
Morphine produces constipation, especially during chronic use. R N-methylnalorphine can also be used to treat constipation. […] These mice had reduced intestinal transit times of the charcoal gavage after morphine. The reduced rate of GI transit time produced by morphine is thought to be the basis of morphine's constipating effects in mammals, including man.

[5] = tested on: guinea pig ileum; conditions: cited from earlier work
[6] = tested on: dogs; assay: Emesis produced by the antagonist by itself in dogs
[7] = tested on: cis-platinum-induced emesis; assay: Cis-platinum-induced emesis in dogs; assay type: in vivo; conditions: 0.5 mg/kg i.v.
Excerpt: Ondasetron is used postoperatively to reduce the incidence of emesis during recovery from surgery, and to reduce nausea and vomiting of cancer patients who may be receiving chemotherapy with agents such as cis-platinum. It is not effective in all post surgical or cancer patients.

Compound | Minimum Effective Dose to Antagonize Morphine Analgesia [1] [mg/kg i.v.] | Anti-emetic ED84 value [2] | Minimum Dose to Produce Ataxic Gait In Rat [3] [mg/kg i.v.] | Effect on slowed gastrointestinal transit produced by morphine [4] | further results
C=CC[N+]1(C)CC[C@]23c4c5ccc(O)c4O[C@H]2C(=O)CC[C@@]3(O)[C@H]1C5 (stereo partly drawn) [N-methylnaloxone] | 2.5 | 0.18 mg/k i.v. mg/kg | 15 |  | 
C[N@+]1(CC2CC2)CC[C@]23c4c5ccc(O)c4O[C@H]2C(=O)CC[C@@]3(O)[C@H]1C5 [N-methylnaltrexone] | 15 | 0.25 mg/kg i.v. | 15 |  | 
C=CC[N@@+]1(C)CC[C@]23c4c5ccc(O)c4O[C@H]2[C@@H](O)C=C[C@H]3[C@H]1C5 [R N-methylnalorphine, (5α,6α,17R)-7,8-didehydro-4,5-epoxy-3,6-dihydroxy-17-methyl-17-(2-propenyl)morphinanium chloride] | 30.0 | 0.11 mg/kg i.v. | 30 | reversal of the slowed transit time produced by morphine; also recorded: dose-dependent increase in gastrointestinal transit | Anti-emetic ED84 value ([2]; listed as compound of Formula (I)): 0.11 mg/kg
C=CC[N+]1(C)CC[C@]23c4c5ccc(O)c4O[C@H]2[C@@H](O)C=CC3[C@H]1C5 (stereo partly drawn) [S N-methylnalorphine] |  |  | 15 | no effect | Block of morphine-induced emesis ([2]; doses tested up to 0.5 mg/kg i.v., morphine 0.7 mg/kg i.m., listed as S isomer of N-methylnalorphine): not active; Agonist potency weaker than antagonist activity in vitro [5]: 10 fold; Agonist properties ([5]; guinea pig ileum, not other tissues with mu receptors): very weak agonist properties; Emesis in % of animals ([6]; 0.5 mg/kg i.v., compound by itself): Emesis in 12.5% of animals at 0.5; Doses at which dogs demonstrated emesis ([6]; dog, in vivo, intravenous): > 0.5 mg/kg; Animals with emesis produced by the compound by itself ([6]; first pharmacological action): 1 out of 8
Cc1nccn1CC1CCc2c(c3ccccc3n2C)C1=O (stereo not drawn) [ondansetron] |  |  |  |  | Protection from the emetic effects of morphine ([2]; 0.5 mg/kg i.v., morphine 0.7mg/kg i.m.): failed to protect any dogs; Protection from cis-platinum-induced emesis [7]: completely protects
